Laboratory results taken from patent US20230141101A1, “PDE4 INHIBITOR COMPOUND AND MEDICAL USE THEREOF” (Suzhou Longbotai Pharmaceuticals Co., Ltd., priority 2020, published 2023).

Columns and labels:
Format in all cases: biochemical
Details in all cases: 20 nM
[1] = target: PDE4D2 (Homo sapiens, UniProt Q08499); assay: PDE4 inhibitory activity assay (FAM-cAMP enzymatic reaction), PDE4D2
Summary of the method: (§1)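 Inhibition rates from a fluorescence read gave IC50 values. Each enzyme (PDE4A1A, PDE4B1, PDE4D2) sat with compound for 15 min at room temperature; FAM-cAMP then started a 30 min room-temperature reaction, ended with stop solution and left 60 min more.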

[2] = target: T1, PDE4B1 (Homo sapiens, UniProt Q07343); assay: PDE4 inhibitory activity assay (FAM-cAMP enzymatic reaction), PDE4B1
T1 construct: purchased BPS 60041
T1 sequence (Q07343 whole entry): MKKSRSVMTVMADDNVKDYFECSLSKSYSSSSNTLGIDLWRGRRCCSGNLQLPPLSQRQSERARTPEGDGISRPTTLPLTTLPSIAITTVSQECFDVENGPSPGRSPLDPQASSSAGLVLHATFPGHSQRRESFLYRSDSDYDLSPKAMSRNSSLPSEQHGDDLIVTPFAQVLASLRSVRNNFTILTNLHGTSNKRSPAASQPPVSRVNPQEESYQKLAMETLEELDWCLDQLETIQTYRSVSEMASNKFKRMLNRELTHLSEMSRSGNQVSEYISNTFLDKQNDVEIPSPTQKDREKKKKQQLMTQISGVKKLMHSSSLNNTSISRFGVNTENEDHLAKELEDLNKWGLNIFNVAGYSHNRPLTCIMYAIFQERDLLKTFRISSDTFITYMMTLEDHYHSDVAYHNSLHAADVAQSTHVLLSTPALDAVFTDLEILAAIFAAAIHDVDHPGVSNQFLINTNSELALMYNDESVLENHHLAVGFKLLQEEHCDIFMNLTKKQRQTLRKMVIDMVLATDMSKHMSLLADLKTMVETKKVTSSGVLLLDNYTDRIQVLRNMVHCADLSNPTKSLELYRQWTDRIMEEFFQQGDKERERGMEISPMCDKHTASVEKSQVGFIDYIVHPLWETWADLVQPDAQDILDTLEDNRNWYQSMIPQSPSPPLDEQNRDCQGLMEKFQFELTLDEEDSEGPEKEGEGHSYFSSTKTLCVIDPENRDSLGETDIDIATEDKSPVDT
Summary of the method: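 Each isoform is incubated with test compound for 15 min at room temperature before FAM-cAMP substrate starts a 30-min reaction.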

[3] = target: T2, PDE4A1A (Homo sapiens, UniProt P27815); assay: PDE4 inhibitory activity assay (FAM-cAMP enzymatic reaction), PDE4A1A
T2 construct: purchased BPS 60040
T2 sequence (P27815 1-647 isoform P27815-4): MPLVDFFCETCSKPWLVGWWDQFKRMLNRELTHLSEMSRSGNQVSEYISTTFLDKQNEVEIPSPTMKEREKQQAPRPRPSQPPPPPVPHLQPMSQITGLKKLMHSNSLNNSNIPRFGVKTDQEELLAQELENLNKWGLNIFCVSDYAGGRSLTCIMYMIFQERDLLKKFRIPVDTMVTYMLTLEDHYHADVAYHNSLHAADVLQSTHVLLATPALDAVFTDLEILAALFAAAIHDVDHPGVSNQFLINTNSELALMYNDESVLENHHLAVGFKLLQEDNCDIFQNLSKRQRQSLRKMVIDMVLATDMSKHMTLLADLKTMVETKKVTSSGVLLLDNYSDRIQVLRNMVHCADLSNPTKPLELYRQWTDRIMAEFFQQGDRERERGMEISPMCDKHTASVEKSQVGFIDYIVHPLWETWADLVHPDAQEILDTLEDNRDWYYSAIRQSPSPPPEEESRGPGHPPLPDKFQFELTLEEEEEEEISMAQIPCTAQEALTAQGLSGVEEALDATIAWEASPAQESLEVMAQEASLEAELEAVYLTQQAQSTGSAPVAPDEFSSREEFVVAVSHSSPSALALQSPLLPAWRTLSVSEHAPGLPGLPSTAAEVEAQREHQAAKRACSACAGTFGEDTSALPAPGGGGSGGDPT
Summary of the method: as §1

PDE4D2, sequence (Q08499 303-809): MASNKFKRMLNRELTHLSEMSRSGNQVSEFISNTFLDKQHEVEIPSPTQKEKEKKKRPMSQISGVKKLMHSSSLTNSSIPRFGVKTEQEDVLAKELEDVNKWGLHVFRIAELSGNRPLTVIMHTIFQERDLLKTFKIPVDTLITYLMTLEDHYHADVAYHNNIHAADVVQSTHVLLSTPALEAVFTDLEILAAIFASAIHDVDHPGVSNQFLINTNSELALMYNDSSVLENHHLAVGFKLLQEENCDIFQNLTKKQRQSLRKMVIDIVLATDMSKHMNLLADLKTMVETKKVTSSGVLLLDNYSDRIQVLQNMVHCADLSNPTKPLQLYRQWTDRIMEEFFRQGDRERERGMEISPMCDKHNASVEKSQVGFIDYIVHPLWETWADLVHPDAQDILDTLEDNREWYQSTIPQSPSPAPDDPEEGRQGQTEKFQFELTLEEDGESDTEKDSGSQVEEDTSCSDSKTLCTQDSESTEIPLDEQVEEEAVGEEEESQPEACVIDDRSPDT

PDE4 D2 inhibitory effect at 20 nM [1]	PDE4 B1 inhibitory effect at 20 nM [2]	PDE4 A1 inhibitory effect at 20 nM [3]	Structure (SMILES)
=	+	+	CCOc1nc([C@@H](CS(C)(=O)=O)n2c(=O)[nH]c3c(C)c(-c4ccccn4)cnc32)ccc1OC [Ex. 17, (S)-3-(1-(6-ethoxy-5-methoxypyridin-2-yl)-2-(methylsulfonyl)ethyl)-7-methyl-6-(pyridin-2-yl)-1H-imidazo[4,5-b]pyridin-2(3H)-one]
+	+	+	CCOc1nc([C@@H](CS(C)(=O)=O)n2c(=O)n(C)c3cc(-c4ccccc4OC)cnc32)ccc1OC [Ex. 84, (S)-3-(1-(6-ethoxy-5-methoxypyridin-2-yl)-2-(methylsulfonyl)ethyl)-6-(2-methoxyphenyl)-1-methyl-1H-imidazo[4,5-b]pyridin-2(3H)-one]
+	+	+	CCOc1nc([C@@H](CS(C)(=O)=O)n2c(=O)n(C)c3cc(-c4cc(C)ccc4F)cnc32)ccc1OC [Ex. 114, (S)-6-(2-fluoro-5-methylphenyl)-3-(1-(6-ethoxy-5-methoxypyridin-2-yl)-2-(methylsulfonyl)ethyl)-1-methyl-1H-imidazo[4,5-b]pyridin-2(3H)-one]
+	+	+	CCOc1nc([C@@H](CS(C)(=O)=O)n2c(=O)[nH]c3cc(-c4ccc(C)cc4C)cnc32)ccc1OC [Ex. 99, (S)-6-(2,4-dimethylphenyl)-3-(1-(6-ethoxy-5-methoxypyridin-2-yl)-2-(methylsulfonyl)ethyl)-1H-imidazo[4,5-b]pyridin-2(3H)-one]
+	+	+	CCOc1nc([C@@H](CS(C)(=O)=O)n2c(=O)n(C)c3cc(-c4ccc(F)cc4C)cnc32)ccc1OC [Ex. 108, (S)-6-(4-fluoro-2-methylphenyl)-3-(1-(6-ethoxy-5-methoxypyridin-2-yl)-2-(methylsulfonyl)ethyl)-1-methyl-1H-imidazo[4,5-b]pyridin-2(3H)-one]
+	+	+	CCOc1nc([C@@H](CS(C)(=O)=O)n2c(=O)[nH]c3cc(-c4cc(OC)ccc4F)ccc32)ccc1OC [Ex. 181, (S)-5-(2-fluoro-5-methoxyphenyl)-1-(1-(6-ethoxy-5-methoxypyridin-2-yl)-2-(methylsulfonyl)ethyl)-1H-benzo[d]imidazol-2(3H)-one]
+	+	+	CCOc1nc([C@@H](CS(C)(=O)=O)n2c(=O)[nH]c3cc(-c4ccc(C)cc4F)cnc32)ccc1OC [Ex. 115]
+	+	+	CCOc1nc([C@@H](CS(C)(=O)=O)n2c(=O)[nH]c3c(C)c(-c4cccc(C)c4C)cnc32)ccc1OC [Ex. 33, (S)-6-(2,3-dimethylphenyl)-3-(1-(6-ethoxy-5-methoxypyridin-2-yl)-2-(methylsulfonyl)ethyl)-7-methyl-1H-imidazo[4,5-b]pyridin-2(3H)-one]
+	+	+	CCOc1nc([C@@H](CS(C)(=O)=O)n2c(=O)[nH]c3cc(-c4ccc(F)cc4F)cnc32)ccc1OC [Ex. 94, (S)-6-(2,4-difluorophenyl)-3-(1-(6-ethoxy-5-methoxypyridin-2-yl)-2-(methylsulfonyl)ethyl)-1H-imidazo[4,5-b]pyridin-2(3H)-one]

More lines, now with the values behind:

Structure (SMILES)	PDE4 D2 inhibitory effect at 20 nM [1]	PDE4 B1 inhibitory effect at 20 nM [2]	PDE4 A1 inhibitory effect at 20 nM [3]
CCOc1nc([C@@H](CS(C)(=O)=O)n2c(=O)[nH]c3cc(-c4ccccc4C4CC4)ccc32)ccc1OC [Ex. 148, (S)-5-(2-cyclopropylphenyl)-1-(1-(6-ethoxy-5-methoxypyridin-2-yl)-2-(methylsulfonyl)ethyl)-1H-benzo[d]imidazol-2(3H)-one]	+	+	+
CCOc1nc([C@@H](CS(C)(=O)=O)n2c(=O)n(CC(F)F)c3c(C)c(-c4ccccc4C)cnc32)ccc1OC [Ex. 59, (S)-1-(2,2-difluoroethyl)-3-(1-(6-ethoxy-5-methoxypyridin-2-yl)-2-(methylsulfonyl)ethyl)-7-methyl-6-(o-methylphenyl)-1H-imidazo[4,5-b]pyridin-2(3H)-one]	+	+	+
CCOc1nc([C@@H](CS(C)(=O)=O)n2c(=O)n(CC)c3c(C)c(-c4ccccc4C)cnc32)ccc1OC [Ex. 50, (S)-3-(1-(6-ethoxy-5-methoxypyridin-2-yl)-2-(methylsulfonyl)ethyl)-1-ethyl-7-methyl-6-(o-methylphenyl)-1H-imidazo[4,5-b]pyridin-2(3H)-one]	+	+	+
CCOc1nc([C@@H](CS(C)(=O)=O)n2c(=O)[nH]c3c(-c4ccccc4F)cccc32)ccc1OC [Ex. 205, (S)-1-(1-(6-ethoxy-5-methoxypyridin-2-yl)-2-(methylsulfonyl)ethyl)-4-(2-fluorophenyl)-1H-benzo[d]imidazol-2(3H)-one]	+	+	+
CCOc1nc([C@@H](CS(C)(=O)=O)n2c(=O)[nH]c3cc(-c4ccccn4)ccc32)ccc1OC [Ex. 194, (S)-1-(1-(6-ethoxy-5-methoxypyridin-2-yl)-2-(methylsulfonyl)ethyl)-5-(pyridin-2-yl)-1H-benzo[d]imidazol-2(3H)-one]	+	+	+
CCOc1nc([C@H](CS(C)(=O)=O)n2c(=O)n(C)c3c(C)c(-c4ccccc4F)cnc32)ccc1OC [Ex. 22]	−	−	−
CCOc1nc([C@H](CS(C)(=O)=O)n2c(=O)[nH]c3cc(-c4ccc(F)cc4)ccc32)ccc1OC [Ex. 136, (R)-1-(1-(6-ethoxy-5-methoxypyridin-2-yl)-2-(methylsulfonyl)ethyl)-5-(4-fluorophenyl)-1H-benzo[d]imidazol-2(3H)-one]	+	+	+
CCOc1nc([C@@H](CS(C)(=O)=O)n2c(=O)n(C)c3cc(-c4cc(OC)ccc4F)ccc32)ccc1OC [Ex. 182, (S)-5-(2-fluoro-5-methoxyphenyl)-1-(1-(6-ethoxy-5-methoxypyridin-2-yl)-2-(methylsulfonyl)ethyl)-3-methyl-1H-benzo[d]imidazol-2(3H)-one]	+	+	+
CCOc1nc([C@@H](CS(C)(=O)=O)n2c(=O)[nH]c3c(C)c(-c4ccc(F)cc4)cnc32)ccc1OC(F)F [Ex. 63, (S)-3-(1-(5-(difluoromethoxy)-6-ethoxypyridin-2-yl)-2-(methylsulfonyl)ethyl)-6-(4-fluorophenyl)-7-methyl-1H-imidazo[4,5-b]pyridin-2(3H)-one]	+	+	+
